Measurements from patent US8507472B2 (priority 2010, dated 2013).
Read-outs that look alike come from different tables or passages of the source.

Columns and labels:
Alternaria solani = assay: Alternaria test (tomato)/protective; type: in vivo
Procedure: (§1) Solvent: 49 parts by weight of N,N-dimethylformamide
(§2) Emulsifier: 1 part by weight of alkylaryl polyglycol ether
To produce a suitable preparation of active compound, 1 part by weight of active compound is mixed with the stated amounts of solvent and emulsifier, and the concentrate is diluted with water to the desired concentration.
To test for protective activity, young tomato plants are sprayed with the active compound preparation at the stated application rate. 1 day after the treatment, the plants are inoculated with a spore suspension of Alternaria solani and then remain at 100% rel. humidity and 22° C. for 24 h. The plants then remain at 96% rel. atmospheric humidity and a temperature of 20° C.
(§3) Evaluation is carried out 7 days after the inoculation. 0% means an efficacy which corresponds to that of the control, whereas an efficacy of 100% means that no infection is observed.

Phytophthora infestans = type: in vivo
Pyrenophora teres = Pyrenophora teres test (barley)/protective; type: in vivo
Procedure: as §1, §2
(§4) To produce a suitable preparation of active compounds, 1 part by weight of active compound is mixed with the stated amounts of solvent and emulsifier, and the concentrate is diluted with water to the desired concentration.
(§5) To test for protective activity, young barley plants are sprayed with the active compound preparation at the stated application rate. 1 day after the treatment, the plants are inoculated with an aqueous spore suspension of Pyrenophora teres and then remain at 100% rel. atmospheric humidity and 22° C. for 48 h. The plants are then placed in a greenhouse at 80% rel. atmospheric humidity and a temperature of 20° C.
(§6) Evaluation is carried out 7-9 days after the inoculation. 0% means an efficacy which corresponds to that of the control, whereas an efficacy of 100% means that no infection is observed.

DON/AcDON production = assay: microbe, parasite or virus in culture; type: cell-based, Fusarium graminearum; settings: 7 days at 28° C.; for inhibition at 50 µM: Fusarium graminearum, 168 h
Fusarium graminearum = assay: microbe, parasite or virus in culture; type: cell-based; settings: for inhibition at 50 µM: Fusarium graminearum, 72 h, read-out: % inhibition of the fungal growth of Fusarium graminearum at 50 μM
Sphaerotheca fuliginea = assay: Sphaerotheca test (cucumber)/protective; type: in vivo; settings: in vivo
Procedure: as §1, §2, §4
To test for protective activity, young cucumber plants are sprayed with the active compound preparation at the stated application rate. 1 day after the treatment, the plants are inoculated with a spore suspension of Sphaerotheca fuliginea. The plants are then placed in a greenhouse at 70% rel. atmospheric humidity and a temperature of 23° C.
as §3

Leptosphaeria nodorum = Leptosphaeria nodorum test (wheat)/protective; type: in vivo
Procedure: as §1, §2, §4
as §5, with “wheat” for “barley”, “Leptosphaeria nodorum” for “Pyrenophora teres”, “90%” for “80%”, “22°” for “20°”
as §6

[1] = log P determination by HPLC retention times (alkan-2-one calibration)
[2] = 500 ppm active compound, tomato, protective, evaluation 7 days after inoculation
[3] = 500 ppm active compound, barley, protective, evaluation 7-9 days after inoculation
[4] = log P(HCOOH), HCOOH, preparation examples in the text
[5] = log P, values marked [b] in Table 1

Row | Structure (SMILES) | efficacy in % (Alternaria solani; in vivo) | efficacy in % (Phytophthora infestans; in vivo) | efficacy in % (Pyrenophora teres; in vivo) | % inhibition of DON/AcDON at 50 μM (DON/AcDON production) | % inhibition of the fungal growth of Fusarium graminearum at 50 μM (Fusarium graminearum) | efficacy in % (Sphaerotheca fuliginea) | efficacy in % (Leptosphaeria nodorum; in vivo) | further results
1 | Cc1ccc(-c2nn3c(c2-c2ccncc2)CCC3)cc1 [Example 41] | 70% | 70% | 95% | 98% | 100% | – | – | –
2 | C[C@@H](O)C(=O)Nc1cc(-c2c(-c3ccsc3)nn3c2CCCC3)ccn1 [Example 66] | 70% | 80% | 95% | 98% | 50% | – | – | –
3 | CC(C)C(=O)Nc1cc(-c2c(-c3cccs3)nn3c2CCCC3)ccn1 [Example 88] | 90% | 80% | 90% | – | – | 95% | – | –
4 | CCC(=O)Nc1cc(-c2c(-c3ccc(F)cc3)nn3c2CCCCC3)ccn1 [Example 96] | 90% | 70% | 100% | – | – | 95% | 90% | –
5 | CC(C)C(=O)Nc1cc(-c2c(-c3ccc(F)cc3)nn3c2CCOC3(C)C)ccn1 [Example 83] | 89% | 70% | 94% | – | – | 98% | 75% | –
6 | Nc1cc(-c2c(-c3ccc(F)cc3)nn3c2CCCC3)ccn1 [Example 3, 4-[2-(4-Fluorophenyl)-4,5,6,7-tetrahydropyrazolo[1,5-a]pyridin-3-yl]pyridine-2-amine] | – | – | – | – | – | – | – | efficacy in % (Alternaria solani; [2]): 95%; efficacy in % (Leptosphaeria nodorum; 500 ppm active compound, wheat, protective, evaluation 7-9 days after inoculation): 89%; efficacy in % (Phytophthora infestans; [2]): 90%; efficacy in % (Pyrenophora teres; [3]): 95%; inhibition at 50 µM (DON/AcDON production): 94%; inhibition at 50 µM (Fusarium graminearum): 30%; chromatographic logP [1, 4]: 1.21; chromatographic logP ([1]; log P, values marked [a] in Table 1): 1.21; chromatographic logP [1, 5]: 2.05
7 | FC(F)(F)c1cccc(-c2nn3c(c2-c2ccncc2)CCC3)c1 [Example 42] | – | – | – | 98% | 100% | – | – | –
8 | c1cc(-c2c(-c3ccsc3)nn3c2CCC3)ccn1 [Example 46] | 70% | 70% | 70% | 100% | 52% | – | – | –
9 | c1csc(-c2nn3c(c2-c2ccncc2)CCCC3)c1 [Example 62] | 94% | 80% | 95% | 100% | 35% | – | 78% | –
10 | Fc1cc(-c2c(-c3ccc(Cl)cc3)nn3c2CCC3)ccn1 [Example 13] | – | – | 80% | 96% | 17% | – | – | –
11 | CC(C)CNc1cc(-c2c(-c3ccc(F)cc3)nn3c2CCC3)ccn1 [Example 71] | – | 80% | 80% | – | – | – | – | –
12 | Fc1cc(-c2c(-c3ccccc3)nn3c2CCC3)ccn1 [Example 61, 3-(2-Fluoropyridin-4-yl)-2-phenyl-5,6-dihydro-4H-pyrrolo[1,2-b]pyrazole] | – | – | – | – | – | – | – | efficacy in % (Pyrenophora teres; [3]): 70%; inhibition at 50 µM (DON/AcDON production): 100%; inhibition at 50 µM (Fusarium graminearum): 0%; chromatographic logP [1, 4]: 2.53; chromatographic logP [1, 5]: 2.53
13 | COCC(=O)Nc1cc(-c2c(-c3ccsc3)nn3c2CCCC3)ccn1 [Example 60] | – | – | 90% | 100% | 100% | 90% | 78% | –
14 | COC(=O)Nc1cc(-c2c(-c3ccsc3)nn3c2CCCC3)ccn1 [Example 67] | 80% | 70% | 95% | 100% | 60% | – | – | –
15 | Fc1ccc(-c2nn3c(c2-c2ccnc(F)c2)CCC3)cc1 [Example 45] | 95% | 90% | 95% | 100% | 21% | – | – | –
16 | Nc1cc(-c2c(-c3ccccc3)nn3c2CCCC3)ccn1 [Example 14] | – | 70% | – | 93% | 24% | – | – | –
17 | Cc1cc(-c2c(-c3ccc(F)cc3)nn3c2CCCC3)ccn1 [Example 6] | 95% | – | 70% | 99% | 70% | – | 70% | log P ([1]; values marked [a] in Table 1): 1.22^[a];; log P ([1]; values marked [b] in Table 1): 2.67^[b]
18 | Fc1cccc(-c2nn3c(c2-c2ccncc2)CCC3)c1 [Example 44] | 80% | 70% | 90% | 100% | 61% | – | – | –
19 | O=C(CC1CC1)Nc1cc(-c2c(-c3ccc(F)cc3)nn3c2COCC3)ccn1 [Example 113] | 90% | 70% | 94% | – | – | 98% | 78% | –
20 | Clc1ccc(-c2nn3c(c2-c2ccncc2)CCC3)cc1 [Example 11] | – | 80% | 70% | 100% | 92% | 88% | 70% | –
21 | c1ccc(-c2nn3c(c2-c2ccncc2)CCC3)cc1 [Example 10] | 70% | 70% | 80% | 100% | 87% | 94% | 80% | –
22 | COCC(=O)Nc1cc(-c2c(-c3ccc(F)cc3)nn3c2CCOC3(C)C)ccn1 [Example 82] | 89% | 70% | 94% | – | – | 95% | 88% | –
23 | CC(=O)Nc1cc(-c2c(-c3ccc(F)cc3)nn3c2CCOC3(C)C)ccn1 [Example 90] | 95% | 78% | 95% | – | – | 95% | 89% | –
24 | CC(C)(C)OC(=O)Nc1cc(-c2c(-c3ccc(F)cc3)nn3c2CCCC3)ccn1 [Example 16] | – | – | – | 93% | 0% | – | – | –
25 | CCC(=O)Nc1cc(-c2c(-c3cccs3)nn3c2CCCC3)ccn1 [Example 75] | 95% | 80% | 100% | – | – | 95% | – | –
26 | O=C(Nc1cc(-c2c(-c3ccc(F)cc3)nn3c2COCC3)ccn1)C1CC1 [Example 93] | 95% | 90% | 100% | – | – | 98% | 80% | –
27 | CC(C)C(=O)Nc1cc(-c2c(-c3ccc(F)cc3)nn3c2COCC3)ccn1 [Example 92] | 90% | 80% | 95% | – | – | 98% | 90% | –
28 | CN(C)C=Nc1cc(-c2c(-c3ccc(F)cc3)nn3c2CCCC3)ccn1 [Example 39] | 80% | 80% | 95% | – | – | – | – | –
29 | Fc1cccc(-c2nn3c(c2-c2ccnc(F)c2)CCC3)c1 [Example 54] | 80% | – | – | 100% | 0% | – | – | –
30 | CC(C)Nc1cc(-c2c(-c3cccc(F)c3)nn3c2CCC3)ccn1 [Example 56] | – | 80% | – | 92% | 27% | – | – | –
